Data taken from ChEMBL document CHEMBL1133041, “Synthetic conversion of ACAT inhibitor to acetylcholinesterase inhibitor” (Bioorg Med Chem Lett, 2000).

How the values were obtained:
[1] = biological target: T1, Acetylcholinesterase (Homo sapiens, UniProt P22303); experiment: Inhibitory activity against Acetylcholinesterase
[2] = biological target: T2, Sterol O-acyltransferase 1 (Homo sapiens, UniProt P35610); experiment: Inhibitory activity against acyl-CoA:cholesterol acyltransferase (ACAT)
T2 sequence (P35610 whole entry): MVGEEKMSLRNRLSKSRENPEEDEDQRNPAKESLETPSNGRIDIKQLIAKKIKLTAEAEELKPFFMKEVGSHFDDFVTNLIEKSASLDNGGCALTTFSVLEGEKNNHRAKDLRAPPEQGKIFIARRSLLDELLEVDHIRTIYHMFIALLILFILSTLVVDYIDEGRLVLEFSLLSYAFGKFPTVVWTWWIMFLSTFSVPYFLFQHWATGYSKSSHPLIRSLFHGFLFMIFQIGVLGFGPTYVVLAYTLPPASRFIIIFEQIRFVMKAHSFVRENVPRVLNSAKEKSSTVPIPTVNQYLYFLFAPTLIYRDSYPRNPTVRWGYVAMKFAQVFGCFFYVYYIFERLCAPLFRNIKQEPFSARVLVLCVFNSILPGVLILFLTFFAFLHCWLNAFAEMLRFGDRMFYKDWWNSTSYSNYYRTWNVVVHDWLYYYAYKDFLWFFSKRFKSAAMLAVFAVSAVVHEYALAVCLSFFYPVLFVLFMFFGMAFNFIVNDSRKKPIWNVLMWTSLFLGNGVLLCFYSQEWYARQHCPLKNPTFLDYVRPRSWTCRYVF

[3] = biological target: T2, Sterol O-acyltransferase 1; experiment: Inhibitory activity against acyl-CoA:cholesterol acyltransferase (ACAT); no inhibition >1000
[4] = biological target: T1, Acetylcholinesterase; experiment: Inhibitory activity against Acetylcholinesterase; no inhibition at 100 uM

T1 sequence (P22303 whole entry): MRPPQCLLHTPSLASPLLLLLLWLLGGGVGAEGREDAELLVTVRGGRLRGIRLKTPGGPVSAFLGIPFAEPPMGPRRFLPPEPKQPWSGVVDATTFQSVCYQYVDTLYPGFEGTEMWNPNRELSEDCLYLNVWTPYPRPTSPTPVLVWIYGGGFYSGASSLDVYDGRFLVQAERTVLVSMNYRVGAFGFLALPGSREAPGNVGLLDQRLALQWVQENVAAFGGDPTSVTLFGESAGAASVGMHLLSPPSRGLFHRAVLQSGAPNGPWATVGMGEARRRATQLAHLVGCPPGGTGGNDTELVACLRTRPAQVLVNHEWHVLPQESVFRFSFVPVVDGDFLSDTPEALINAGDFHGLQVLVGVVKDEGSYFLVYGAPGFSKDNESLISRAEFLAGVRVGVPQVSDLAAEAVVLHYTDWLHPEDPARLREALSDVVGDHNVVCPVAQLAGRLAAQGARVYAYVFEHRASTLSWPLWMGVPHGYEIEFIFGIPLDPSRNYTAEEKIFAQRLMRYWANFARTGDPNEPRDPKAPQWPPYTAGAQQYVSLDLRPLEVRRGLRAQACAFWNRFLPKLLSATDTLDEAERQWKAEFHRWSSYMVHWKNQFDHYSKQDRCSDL

Row | SMILES | IC50 [1] [µM] | also measured
1 | COc1cc(-c2cc3c(c(=O)o2)C[C@]2(O)[C@@]4(C)C(=O)C=CC(C)(C)[C@]4(O)CC[C@@]2(C)O3)cc(OC)c1OC [TERRITREM B] | 0.008 | IC50 [2]: > 50 µM
2 | COc1ccc(-c2cc3c(c(=O)o2)C[C@]2(O)[C@@]4(C)C(=O)C=CC(C)(C)[C@]4(O)CC[C@@]2(C)O3)cc1OC | 0.001 | IC50 [2]: > 50 µM
3 | COc1ccc(-c2cc3c(c(=O)o2)C[C@]2(O)[C@@]4(C)C(=O)C=CC(C)(C)[C@]4(O)CC[C@@]2(C)O3)cc1 | 0.026 | 
4 | COc1ccc(-c2cc3c(c(=O)o2)C(=O)C2[C@@]4(C)CC[C@H](O)[C@@](C)(CO)C4C[C@H](O)[C@@]2(C)O3)cc1 (stereo partly specified) | 70 | IC50 [3]: Not Active
5 | C[C@]12CC[C@H](O)[C@@](C)(CO)C1C[C@H](O)[C@@]1(C)Oc3cc(-c4ccccc4)oc(=O)c3C(=O)C21 (stereo partly specified) | 99 | 
6 | CC(=O)OC[C@@]1(C)C2C[C@H](OC(C)=O)[C@@]3(C)Oc4cc(-c5cccnc5)oc(=O)c4[C@H](O)C3[C@@]2(C)CC[C@@H]1OC(C)=O (stereo partly specified) |  | IC50 [4]: No inhibition
7 | COc1ccc(-c2cc3c(c(=O)o2)C(=O)C2[C@@]4(C)CC[C@H](O)[C@@](C)(CO)C4C[C@H](O)[C@@]2(C)O3)cc1OC (stereo partly specified) | 58 | 
8 | COc1cccc(-c2cc3c(c(=O)o2)C(=O)C2[C@@]4(C)CC[C@H](O)[C@@](C)(CO)C4C[C@H](O)[C@@]2(C)O3)c1 (stereo partly specified) | > 93 | 
9 | C[C@]12CC[C@H](O)[C@@](C)(CO)C1C[C@H](O)[C@@]1(C)Oc3cc(-c4ccncc4)oc(=O)c3C(=O)C21 (stereo partly specified) | 7.9 | IC50 [3]: No inhibition
10 | C[C@]12CC[C@H](O)[C@@](C)(CO)C1C[C@H](O)[C@@]1(C)Oc3cc(-c4ccc(Cl)nc4)oc(=O)c3C(=O)C21 (stereo partly specified) | 80 | 
11 | C[C@]12CC[C@H](O)[C@@](C)(CO)C1C[C@H](O)[C@@]1(C)Oc3cc(-c4cccnc4)oc(=O)c3C(=O)C21 (stereo partly specified) | 35 | 
12 | C[C@]12CC[C@H](O)[C@@](C)(CO)C1C[C@H](O)[C@@]1(C)Oc3cc(-c4ccccn4)oc(=O)c3C(=O)C21 (stereo partly specified) | 101 | 
